We go through four compounds from ChEMBL document CHEMBL1949621, “Fluorocyclines. 1. 7-fluoro-9-pyrrolidinoacetamido-6-demethyl-6-deoxytetracycline: a potent, broad spectrum antibacterial agent” (J Med Chem, 2012).

The structures appear in SMILES notation. In brackets after ≈: the same amount, converted by molar mass.

Common to all, as to format: functional
The test system of assay [1] is Staphylococcus aureus. As to the kind of experiment: Antibacterial activity against Staphylococcus aureus ATCC 101 29213.
The subject of assay [2] is Staphylococcus aureus. As to the kind of experiment: Antibacterial activity against tetracycline- and methicillin-resistant Staphylococcus aureus 161.
Assay [3] deals with Staphylococcus aureus. As to the kind of experiment: microbe, parasite or virus in culture. The following applies: 158.
Assay [4] has as its system Enterococcus faecalis. Briefly: Antibacterial activity against Enterococcus faecalis ATCC 103 29212.
The subject of assay [5] is Enterococcus faecalis. Briefly: Antibacterial activity against tetracycline-resistant Enterococcus faecalis 159.
Assay [6] concerns Streptococcus pneumoniae. Briefly: microbe, parasite or virus in culture. The settings on record: ATCC 106 49619.
Description: Antibacterial activity against Streptococcus pneumoniae ATCC 106 49619
Assay [7] concerns Streptococcus pneumoniae. Briefly: Antibacterial activity against tetracycline-resistant Streptococcus pneumoniae 160.
The subject of assay [8] is Escherichia coli. Briefly: Antibacterial activity against Escherichia coli ATCC 107 25922.
The test system of assay [9] is Escherichia coli. As to the kind of experiment: Antibacterial activity against tetracycline-resistant Escherichia coli 155.
A further assay relates to Acinetobacter baumannii. Briefly: Antibacterial activity against Acinetobacter baumannii ATCC 19606 110.
Another assay relates to Pseudomonas aeruginosa. As to the kind of experiment: Antibacterial activity against Pseudomonas aeruginosa ATCC 111 27853.
The next assay deals with Enterobacter cloacae. Briefly: Antibacterial activity against Enterobacter cloacae ATCC 108 13047.
Assay [10] deals with Klebsiella pneumoniae. As to the kind of experiment: Antibacterial activity against Klebsiella pneumoniae ATCC 109 13883.
Assay [11] relates to Klebsiella pneumoniae. Briefly: Antibacterial activity against tetracycline-resistant Klebsiella pneumoniae 153.

Regarding `CN(C)[C@@H]1C(O)=C(C(N)=O)C(=O)[C@@]2(O)C(O)=C3C(=O)c4c(O)c(NC(=O)CN5CC[C@@H](O)C5)cc(F)c4C[C@H]3C[C@@H]12`, the MIC in the assay on Staphylococcus aureus [1] came out at 2 µg/mL (≈ 3.48 µM); against Staphylococcus aureus [2], 2 µg/mL (≈ 3.48 µM); in the assay with Staphylococcus aureus [3] it was 16 µg/mL (≈ 27.8 µM); in the assay on Enterococcus faecalis [4] it was 2 µg/mL (≈ 3.48 µM); against Enterococcus faecalis [5] it was 2 µg/mL (≈ 3.48 µM); with Streptococcus pneumoniae [6], 0.25 µg/mL (≈ 0.435 µM). The MIC with Streptococcus pneumoniae [7] was 0.5 µg/mL (≈ 0.87 µM); in the assay on Escherichia coli [8], 4 µg/mL (≈ 6.96 µM); in the assay on Escherichia coli [9], more than 32 µg/mL; in the assay on Acinetobacter baumannii it was 32 µg/mL (≈ 55.7 µM); against Pseudomonas aeruginosa, more than 32 µg/mL; with Enterobacter cloacae, 16 µg/mL (≈ 27.8 µM). Moreover, the MIC was 16 µg/mL (≈ 27.8 µM) against Klebsiella pneumoniae [10] and more than 32 µg/mL against Klebsiella pneumoniae [11].
Consider `CN(C)CC(=O)Nc1cc(F)c2c(c1O)C(=O)C1=C(O)[C@]3(O)C(=O)C(C(N)=O)=C(O)[C@@H](N(C)C)[C@@H]3C[C@@H]1C2`, for which the MIC is 0.0156 µg/mL (≈ 0.0293 µM) against Staphylococcus aureus [1]; 0.125 µg/mL (≈ 0.235 µM) in the assay on Staphylococcus aureus [2]; 0.25 µg/mL (≈ 0.469 µM) in the assay with Staphylococcus aureus [3]; 0.0156 µg/mL (≈ 0.0293 µM) against Enterococcus faecalis [4]; 0.0312 µg/mL (≈ 0.0586 µM) against Enterococcus faecalis [5]; 0.0156 µg/mL (≈ 0.0293 µM) in the assay with Streptococcus pneumoniae [6]. Besides, the MIC against Streptococcus pneumoniae [7] amounted to 0.0156 µg/mL (≈ 0.0293 µM); in the assay with Escherichia coli [8], 0.125 µg/mL (≈ 0.235 µM); in the assay on Escherichia coli [9] it was 8 µg/mL (≈ 15 µM); with Acinetobacter baumannii, 0.125 µg/mL (≈ 0.235 µM); in the assay with Pseudomonas aeruginosa, 8 µg/mL (≈ 15 µM); with Enterobacter cloacae, 1 µg/mL (≈ 1.88 µM). Also, the MIC in the assay on Klebsiella pneumoniae [10] came to 0.5 µg/mL (≈ 0.939 µM); with Klebsiella pneumoniae [11], 8 µg/mL (≈ 15 µM).
As for `CN(C)[C@@H]1CCN(CC(=O)Nc2cc(F)c3c(c2O)C(=O)C2=C(O)[C@]4(O)C(=O)C(C(N)=O)=C(O)[C@@H](N(C)C)[C@@H]4C[C@@H]2C3)C1`, the MIC against Staphylococcus aureus [1] is 8 µg/mL (≈ 13.3 µM); in the assay on Staphylococcus aureus [2], more than 32 µg/mL; against Staphylococcus aureus [3] it was more than 32 µg/mL; with Enterococcus faecalis [4] it was 16 µg/mL (≈ 26.6 µM); with Enterococcus faecalis [5], 16 µg/mL (≈ 26.6 µM); with Streptococcus pneumoniae [6], 2 µg/mL (≈ 3.32 µM). Also, the MIC against Streptococcus pneumoniae [7] was 4 µg/mL (≈ 6.65 µM); in the assay with Escherichia coli [8], more than 32 µg/mL; against Escherichia coli [9], more than 32 µg/mL; against Acinetobacter baumannii, more than 32 µg/mL; in the assay on Pseudomonas aeruginosa, more than 32 µg/mL; against Enterobacter cloacae, more than 32 µg/mL. The MIC in the assay on Klebsiella pneumoniae [10] and in the assay on Klebsiella pneumoniae [11] was more than 32 µg/mL in each case.
Turning to `CN(C)[C@@H]1C(O)=C(C(N)=O)C(=O)[C@@]2(O)C(O)=C3C(=O)c4c(O)c(NC(=O)CNCC(F)(F)F)cc(F)c4C[C@H]3C[C@@H]12`, the MIC in the assay on Staphylococcus aureus [1] was determined as 1 µg/mL (≈ 1.71 µM); against Staphylococcus aureus [2], 2 µg/mL (≈ 3.41 µM); against Staphylococcus aureus [3] it was 4 µg/mL (≈ 6.82 µM); in the assay with Enterococcus faecalis [4], 2 µg/mL (≈ 3.41 µM); against Enterococcus faecalis [5], 4 µg/mL (≈ 6.82 µM); with Streptococcus pneumoniae [6], 0.5 µg/mL (≈ 0.853 µM). The MIC in the assay on Streptococcus pneumoniae [7] is 1 µg/mL (≈ 1.71 µM); in the assay with Escherichia coli [8], more than 16 µg/mL; against Escherichia coli [9], more than 32 µg/mL; against Acinetobacter baumannii, more than 2 µg/mL; against Pseudomonas aeruginosa, more than 32 µg/mL; against Enterobacter cloacae, more than 32 µg/mL. The MIC in the assay on Klebsiella pneumoniae [10] was 32 µg/mL (≈ 54.6 µM); against Klebsiella pneumoniae [11] it was more than 32 µg/mL.
